One may read the Kd as the equilibrium constant for the complex coming apart. For orientation: Ki means a dissociation constant, usually derived from enzyme kinetics or from competition with a known ligand.

Experimental findings from patent US8084575B2, “Millisecond activation switch for seven-transmembrane proteins” (Julius-Maximilians-Universitat, priority 2002, dated 2011) are described below.

The test system of assay [1] is A2A receptors. Put plainly: 3H-NECA radioligand binding, adenosine receptor constructs in transiently transfected COS cells. Further details: species or system human. The procedure: FIG. 12: Pharmacological properties of the Adenosine receptor constructs. A-B) Comparison between the binding (A) and signalling properties (B) of several adenosine receptor constructs with their respective wild-type receptor in transiently transfected COS cells. Adenylylcyclases activity was determined in membranes from transiently transfected COS cells as previously published (Jakobs et al., J cyclic Nucleotide Res 2 (1976) 381-392, Klotz et al., Naunyn-Schmiedeberg's Arch Pharmacol 357 (1998) 1-9). […] Data are the mean±sd of at least 3 separate experiments.

Assay [2] deals with T1, α2AAR-cam (Mus musculus, UniProt Q01338).
T1 construct: expressed in transfected cells; GIRK1 and GIRK4 co-transfected in A8)
Put plainly: [3H]UK14304 binding to membranes containing α2AAR-cam with exogenous Go protein. As to conditions: for Kd: read-out: Kd of agonist binding. As to the method: Pharmacology. […] Saturation and competition binding studies were analysed with the program Prism to calculate KD- and Ki-values.
Third, binding of G-proteins to receptors is known to enhance formation of the active, agonist-bound state.

Assay [3] has as its target T2, PTHR-cam (Homo sapiens, UniProt Q03431, INS395[…]).
T2 construct: expressed in transfected cells
Put plainly: FRET (ratio F*535/F*480) in single HEK293 cells expressing PTHR-cam. The format is cell-based. As to conditions: intact HEK293 cells; PTH 1 μM, PTH(7-34) 3 μM.

Assay [4] has as its target T1, α2AAR-cam. Put plainly: FRET in neuronal PC-12 cells stably expressing α2AAR-cam, agonist versus inverse agonists. The format is cell-based. As to conditions: 100 μM.
Description: As documented in the appended examples, an illustrative recombinant α2A-adrenergic receptor (α2AAR-cam) was employed, whereby said α2A-adrenergic receptor (α2AAR-cam) comprises the two detectable labels YFP and CFP on the first intracellular loop and the third intracellular loop.
The α2AAR-cam receptors were stably expressed in the neuronal cell line PC-12. […] The signals were recorded before and after exposure to agonist (NA: noradrenaline, 100 μM) and two different inverse agonists (Yoh: yohimbine and Rau:rauwolscine, 100 μM).
Assay [5] addresses T1, α2AAR-cam. The class given is cell-based.
In assay [6] the target is T1, α2AAR-cam. Put plainly: FRET in membranes containing α2AAR-cam in the presence of Go proteins. The class given is biochemical. As to the method: Membrane preparation. Membrane fractions were obtained after two centrifugations at 4° C., first at 800×g for 10 min and the second at 100,000×g for 30 min. Membranes were treated with 6 M urea in 20 mM Hepes, pH 7.4, for 30 min on ice followed by centrifugation at 100,000×g for 15 min. After two washing steps at 4° C. in buffer B the membranes were resuspended in a buffer A (without BSA) and immediately used in the experiments. 20 μl aliquots of membranes were subjected to fluorescence microscopy similar to intact cells using a 20× objective.

Assay [7] deals with A2A-CFP14/10-YFPC33. Put plainly: Intramolecular FRET (nFRET) in HEK293 cells transfected with A2A-CFP14/10-YFPC33. The format is cell-based, human.
Description: 12 h post transfection cells were replated on glass coverslips coated with poly-L-lysine and cultured for another 12-36 h.
Cells were continuously superfused with control solution (in mM: 140 NaCl; 5.4 KCl; 2 CaCl2; 1 mM MgCl2; 10 mM Glucose and 10 HEPES/NaOH pH 7.3) using a fast solenoid valve operated superfusion system ALA-VM8 (ALA Scientific Instruments).
Assay [8] has as its target T1, α2AAR-cam. Description: α2A-adrenergic receptor-activated whole cell GIRK currents in HEK293 cells. The class given is cell-based. The procedure: (§1) Pharmacology. Ligand binding, receptor number determination, cAMP assays, measurement of α2A-adrenergic receptor-activated GIRK currents and reconstitution of receptor-Go coupling were measured as previously described (Vilardaga, (2001) loc. cit.; Bünemann, J. Bio. Chem. 276 (2001), 47512-47517; Vilardaga, J. Biol. Chem. 277 (2002), 8121-8129; Richardson, J. Biol. Chem. 274 (1999), 13525-13533). Saturation and competition binding studies were analysed with the program Prism to calculate KD- and Ki-values.
Electrophysiology. Whole cell GIRK currents were measured in HEK293 cells stably expressing 6 pmol/mg membrane protein α2AR-cam 20-28 h after transient transfection with GIRK1 and GIRK4 as described previously (Bünemann, (2001), loc. cit.). Membrane currents were recorded using an EPC 9 amplifier and Pulse software (HEKA Instruments) for voltage control, data acquisition and data evaluation. Experimental conditions such as patch pipettes, internal and external solutions, voltage-clamp protocol as well as the superfusion system were the same as described previously (Bünemann, (2001), loc. cit.).

Assay [9] has as its target T3, α2AAR (Mus musculus, UniProt Q01338).
T3 construct: expressed in transfected cells
T3 sequence (Q01338 with tags, fused parts or gaps): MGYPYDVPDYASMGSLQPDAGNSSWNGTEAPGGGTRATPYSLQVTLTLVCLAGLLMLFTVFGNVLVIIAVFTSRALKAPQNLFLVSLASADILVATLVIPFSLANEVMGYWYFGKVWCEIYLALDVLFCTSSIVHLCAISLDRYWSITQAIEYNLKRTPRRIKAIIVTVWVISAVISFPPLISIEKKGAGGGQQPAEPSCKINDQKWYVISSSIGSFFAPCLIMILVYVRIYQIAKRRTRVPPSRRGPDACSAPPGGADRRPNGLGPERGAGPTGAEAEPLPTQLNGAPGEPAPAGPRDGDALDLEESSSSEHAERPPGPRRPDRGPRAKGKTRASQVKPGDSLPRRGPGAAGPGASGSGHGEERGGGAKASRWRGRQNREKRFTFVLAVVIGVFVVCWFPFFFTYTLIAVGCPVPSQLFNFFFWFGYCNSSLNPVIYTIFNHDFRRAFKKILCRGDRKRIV
Description: Competition ligand binding, wild-type α2AAR stably expressed in HEK293 cells. As to conditions: read-out: noradrenaline affinity Ki. The procedure:
as §1

The target of assay [10] is T1, α2AAR-cam. Put plainly: Competition ligand binding, α2AAR-cam stably expressed in HEK293 cells. As to conditions: read-out: noradrenaline affinity Ki. As to the method: as §1
Assay [11] deals with PTHR-CFP3-loop and PTHR-YFPC-term. As to conditions: absence or presence of PTH 1 μM.

“Also recorded” adds a separate entry of the source. Where two headings read alike, the source gives them in different places.

Take `CCNC(=O)[C@H]1O[C@@H](n2cnc3c(N)ncnc32)[C@H](O)[C@@H]1O` [^3H-NECA]: in assay [1], the “radioligand binding compared with wild-type A2A receptor” value is given as “no significant difference”.

`Brc1c(NC2=NCCN2)ccc2nccnc12` [UK14304]: the “decrease of binding affinity in presence of GTPγS” value in [2] (10 μM GTPγS) is “≈ 3 fold”. Besides, the equilibrium dissociation constant (Kd) in assay [2] (exogenous Go (receptor:Go 1:100), without GTPγS) was found to be 3.4 ± 0.8 nM; in assay [2] (exogenous Go, in presence of 10 μM GTPγS), 9.6 ± 1.1 nM.

With “PTH7-34: truncated variant of PTH, a low affinity antagonist (LMHNLGKHLNSMERVEWLRKKLQDVHNF; Parathyroid hormone; UniProt P01270 38-65, looked up, fragment)”, the “change in FRET signal” value in [3] is “failed to induce a change in FRET”.

In the case of `COC(=O)[C@H]1[C@H]2C[C@H]3c4[nH]c5ccccc5c4CCN3C[C@H]2CC[C@@H]1O` [rauwolscine], the “conformational change of the receptor relative to agonist noradrenaline” value in assay [4] was “opposite conformational changes”.

On to pertussis toxin, for which the “effect of inactivating Gi and Go on noradrenaline-induced FRET signal” value in assay [5] is on record as “did not affect”.

For `Nc1nc2c(ncn2[C@@H]2O[C@H](COP(=O)(O)OP(=O)(O)OP(O)(O)=S)[C@@H](O)[C@H]2O)c(=O)[nH]1` [GTPγS], the “effect on FRET signal of saturating concentrations of UK14304” value in assay [6] (GTPγS) is on record as “did not affect”. For the same compound, the “reduction of FRET signals caused by 5 nM UK14304” value in assay [6] (GTPγS 10 μM, Go present) was “more than 50%”. In [2] (GTPγS 10 μM, Go present), the “reduction of the binding of 5 nM [3H]UK14304” value was “more than 50%”.

In the case of `Nc1ncnc2c1ncn2[C@@H]1O[C@H](CO)[C@@H](O)[C@H]1O` [adenosine], in assay [7], the “time for nFRET to return to initial value after withdrawal of agonist” value lay in the range of 5 to 10 s.

For “α2AAR-cam: mouse α2A-adrenergic receptor with YFP in third intracellular loop and CFP on C-terminus, SEQ ID NOS: 11 and 12”, the “speed of GIRK current activation versus wild type α2AAR” value in [8] is on record as “not faster than the wild type”.

On to `Cc1ccc(N(CC2=NCCN2)c2cccc(O)c2)cc1` [phentolamine], for which, in assay [5], the “change of FRET signal, given alone” value is “did not alter the FRET signal” and the “effect on the noradrenaline-induced FRET signal” value is given as “rapidly reverted the noradrenaline-induced signal”.

Take `COC(=O)[C@@H]1[C@H]2C[C@H]3c4[nH]c5ccccc5c4CCN3C[C@@H]2CC[C@@H]1O` [yohimbine]: the “conformational change of the receptor relative to agonist noradrenaline” value in assay [4] was “opposite conformational changes”.

Regarding `NC[C@H](O)c1ccc(O)c(O)c1` [noradrenaline], in assay [5], the “change of FRET signal, given alone” value is given as “decline of the FRET signal; also recorded: rapid decrease of the FRET signal”; the “maximal apparent rate constant kobs” value is around 26 s⁻¹; the “time constant required for receptor activation” value is “less than 40 ms”; the “times faster than activation of chemically labelled purified β2-adrenergic receptors” value was “more than 5000 times”. Besides, the Ki in assay [9] was 5000 ± 800 nM. In addition, the Ki in [10] was 16700 ± 1400 nM.

As for “PTH: parathyroid hormone, agonist of the PTH receptor”, in assay [11], the “intermolecular FRET” value is recorded as “no FRET”.

Consider `Clc1cccc(Cl)c1N=C1NCCN1` [clonidine], for which, in assay [5], the “FRET signal compared to the full agonist noradrenaline” value was “three-fold smaller” and the “effect of simultaneous addition on noradrenaline response” value is “restored this response back to the partial response”.
